The target in assay [1] is Serine/threonine-protein kinase PAK 6 (Homo sapiens) (UniProt Q9NQU5). Description: Selectivity interaction (Kinase panel (Z-LYTE Assay)) EUB0001632a PAK6. The conditions noted are these: at 10 µM.
Assay [2] addresses Serine/threonine-protein kinase PAK 2 (Homo sapiens) (UniProt Q13177). Description: Selectivity interaction (Kinase panel (KiNativ target engagement assay in Jurkat cells)) EUB0001635a PAK2. As to conditions: Selectivity number of off-targets 0.0, Selectivity number of targets 233.0, Source Knowledge https://www.sciencedirect.com/science/article/pii/S2451945619300674?via%3Dihub, at 1 µM. Format: cell-based.

Assay [3] concerns the target Macrophage colony-stimulating factor 1 receptor (Homo sapiens) (UniProt P07333). Description: Selectivity interaction (SelectScreen profiling (Invitrogen)) EUB0000607a CSF1R. The conditions noted are these: at 2 µM.
The target in assay [4] is Death-associated protein kinase 3 (Homo sapiens) (UniProt O43293). The assay is described as follows: Selectivity interaction (KinomeScan (DiscoverX)) EUB0000607a DAPK3. As to conditions: at 10 µM.
Assay [5] has as its target Tyrosine-protein kinase Fes/Fps (Homo sapiens) (UniProt P07332). The assay is described as follows: Selectivity interaction (KinomeScan (DiscoverX)) EUB0000607a FES. The conditions noted are these: at 10 µM.
In assay [6] the target is Serine/threonine-protein kinase pim-1 (Homo sapiens, UniProt P11309). Description: Selectivity interaction (SelectScreen profiling (Invitrogen)) EUB0000607a PIM1. The conditions noted are these: at 2 µM.
The target of assay [7] is T1, Megakaryocyte-associated tyrosine-protein kinase (Homo sapiens) (UniProt P42679).
T1 sequence (whole entry): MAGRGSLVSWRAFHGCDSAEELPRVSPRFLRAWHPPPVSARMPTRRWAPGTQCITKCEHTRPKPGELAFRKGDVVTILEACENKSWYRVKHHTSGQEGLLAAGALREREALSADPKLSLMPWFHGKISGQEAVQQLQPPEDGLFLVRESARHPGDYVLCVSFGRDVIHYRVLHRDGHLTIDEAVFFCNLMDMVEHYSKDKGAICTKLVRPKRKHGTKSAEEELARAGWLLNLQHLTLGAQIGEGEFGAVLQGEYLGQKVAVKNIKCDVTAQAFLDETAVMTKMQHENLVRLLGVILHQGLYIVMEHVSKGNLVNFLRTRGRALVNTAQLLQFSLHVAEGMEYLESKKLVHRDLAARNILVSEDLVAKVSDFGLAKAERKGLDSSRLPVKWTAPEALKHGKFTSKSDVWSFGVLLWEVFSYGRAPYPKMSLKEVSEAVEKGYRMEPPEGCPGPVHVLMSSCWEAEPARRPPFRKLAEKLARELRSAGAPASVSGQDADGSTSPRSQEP
The assay is described as follows: Selectivity interaction (SelectScreen profiling (Invitrogen)) EUB0000607a MATK. The conditions noted are these: at 2 µM.

Assay [8] deals with Cyclin-dependent kinase 9 (Homo sapiens, UniProt P50750). As to conditions: at 10 µM.
The target of assay [9] is T2, Dual specificity mitogen-activated protein kinase kinase 5 (Homo sapiens) (UniProt Q13163).
T2 sequence (whole entry): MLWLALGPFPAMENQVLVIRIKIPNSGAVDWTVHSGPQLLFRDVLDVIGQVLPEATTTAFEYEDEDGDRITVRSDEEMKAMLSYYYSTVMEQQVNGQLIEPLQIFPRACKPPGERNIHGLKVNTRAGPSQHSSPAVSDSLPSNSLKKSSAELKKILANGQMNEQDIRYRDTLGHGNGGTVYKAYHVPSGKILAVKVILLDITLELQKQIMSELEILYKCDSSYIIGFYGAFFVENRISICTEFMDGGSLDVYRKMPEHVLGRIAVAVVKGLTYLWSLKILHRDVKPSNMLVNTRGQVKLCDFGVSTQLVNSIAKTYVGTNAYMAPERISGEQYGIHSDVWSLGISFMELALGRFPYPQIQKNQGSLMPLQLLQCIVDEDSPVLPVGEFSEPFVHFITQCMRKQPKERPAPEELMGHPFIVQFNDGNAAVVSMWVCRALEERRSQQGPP
The assay is described as follows: Selectivity interaction (KinomeScan (DiscoverX)) EUB0000229b MAP2K5. As to conditions: at 10 µM.

Assay [10] deals with Platelet-derived growth factor receptor alpha (Homo sapiens, UniProt P16234). The assay is described as follows: Selectivity interaction (KinomeScan (DiscoverX)) EUB0000655a PDGFRA. The conditions noted are these: at 10 µM.
The target of assay [11] is RAC-beta serine/threonine-protein kinase (Homo sapiens) (UniProt P31751). Description: Selectivity interaction (KinomeScan (DiscoverX)) EUB0000655a AKT2. As to conditions: at 10 µM.
Assay [12] concerns the target 1-phosphatidylinositol 3-phosphate 5-kinase (Homo sapiens) (UniProt Q9Y2I7). The assay is described as follows: Selectivity interaction (KinomeScan (DiscoverX)) EUB0001079a PIKFYVE. The conditions noted are these: at 1 µM.
In assay [13] the target is Cyclin-dependent kinase 17 (Homo sapiens) (UniProt Q00537). The assay is described as follows: Selectivity interaction (KinomeScan (DiscoverX)) EUB0001619a CDK17. As to conditions: at 1 µM.
Assay [14] addresses T3, Interleukin-1 receptor-associated kinase 3 (Homo sapiens) (UniProt Q9Y616).
T3 sequence (whole entry): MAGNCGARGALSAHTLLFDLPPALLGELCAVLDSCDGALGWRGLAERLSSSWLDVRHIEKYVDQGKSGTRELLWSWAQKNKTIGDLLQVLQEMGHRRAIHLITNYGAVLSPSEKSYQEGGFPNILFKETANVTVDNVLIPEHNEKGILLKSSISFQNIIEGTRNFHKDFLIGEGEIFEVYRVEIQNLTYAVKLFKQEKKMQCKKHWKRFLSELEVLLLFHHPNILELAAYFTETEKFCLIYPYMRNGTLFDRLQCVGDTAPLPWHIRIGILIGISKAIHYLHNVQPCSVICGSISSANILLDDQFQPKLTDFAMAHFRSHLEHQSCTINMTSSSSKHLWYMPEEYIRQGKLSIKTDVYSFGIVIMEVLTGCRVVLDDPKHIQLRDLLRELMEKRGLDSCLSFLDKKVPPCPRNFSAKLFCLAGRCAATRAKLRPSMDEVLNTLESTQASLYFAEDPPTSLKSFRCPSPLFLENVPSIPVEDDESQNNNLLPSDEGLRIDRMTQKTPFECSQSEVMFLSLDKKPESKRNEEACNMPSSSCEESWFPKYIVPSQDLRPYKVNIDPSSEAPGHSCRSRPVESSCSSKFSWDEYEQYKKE
The assay is described as follows: Selectivity interaction (ActivX KiNativ screen (kinase selectivity in THP-1 cell lysates)) EUB0000639a IRAK3. The assay is classed as subcellular. The conditions noted are these: lysate, at 0.2 µM.

The target in assay [15] is Ribosomal protein S6 kinase alpha-2 (Homo sapiens) (UniProt Q15349). The assay is described as follows: Selectivity interaction (Kinase screening (Nanosyn)) EUB0000604a RPS6KA2.
Assay [16] addresses Serine/threonine-protein kinase 24 (Homo sapiens) (UniProt Q9Y6E0). The assay is described as follows: Selectivity interaction (KinomeScan (DiscoverX)) EUB0000695a STK24. As to conditions: at 100 nM.
The target in assay [17] is Homeodomain-interacting protein kinase 1 (Homo sapiens, UniProt Q86Z02). Description: Selectivity interaction (KinomeScan (DiscoverX)) EUB0000045b HIPK1.
The target of assay [18] is Serine/threonine-protein kinase N1 (Homo sapiens, UniProt Q16512). Description: Selectivity interaction (KinomeScan (DiscoverX)) EUB0000618a PKN1. The conditions noted are these: at 10 µM.

Results on 13 compounds are retold here after ChEMBL document CHEMBL5465560, “Selectivity Literature for EUbOPEN Chemogenomic Library” (2024).

Homeodomain-interacting protein kinase 1, sequence (Q86Z02 whole entry, looked up): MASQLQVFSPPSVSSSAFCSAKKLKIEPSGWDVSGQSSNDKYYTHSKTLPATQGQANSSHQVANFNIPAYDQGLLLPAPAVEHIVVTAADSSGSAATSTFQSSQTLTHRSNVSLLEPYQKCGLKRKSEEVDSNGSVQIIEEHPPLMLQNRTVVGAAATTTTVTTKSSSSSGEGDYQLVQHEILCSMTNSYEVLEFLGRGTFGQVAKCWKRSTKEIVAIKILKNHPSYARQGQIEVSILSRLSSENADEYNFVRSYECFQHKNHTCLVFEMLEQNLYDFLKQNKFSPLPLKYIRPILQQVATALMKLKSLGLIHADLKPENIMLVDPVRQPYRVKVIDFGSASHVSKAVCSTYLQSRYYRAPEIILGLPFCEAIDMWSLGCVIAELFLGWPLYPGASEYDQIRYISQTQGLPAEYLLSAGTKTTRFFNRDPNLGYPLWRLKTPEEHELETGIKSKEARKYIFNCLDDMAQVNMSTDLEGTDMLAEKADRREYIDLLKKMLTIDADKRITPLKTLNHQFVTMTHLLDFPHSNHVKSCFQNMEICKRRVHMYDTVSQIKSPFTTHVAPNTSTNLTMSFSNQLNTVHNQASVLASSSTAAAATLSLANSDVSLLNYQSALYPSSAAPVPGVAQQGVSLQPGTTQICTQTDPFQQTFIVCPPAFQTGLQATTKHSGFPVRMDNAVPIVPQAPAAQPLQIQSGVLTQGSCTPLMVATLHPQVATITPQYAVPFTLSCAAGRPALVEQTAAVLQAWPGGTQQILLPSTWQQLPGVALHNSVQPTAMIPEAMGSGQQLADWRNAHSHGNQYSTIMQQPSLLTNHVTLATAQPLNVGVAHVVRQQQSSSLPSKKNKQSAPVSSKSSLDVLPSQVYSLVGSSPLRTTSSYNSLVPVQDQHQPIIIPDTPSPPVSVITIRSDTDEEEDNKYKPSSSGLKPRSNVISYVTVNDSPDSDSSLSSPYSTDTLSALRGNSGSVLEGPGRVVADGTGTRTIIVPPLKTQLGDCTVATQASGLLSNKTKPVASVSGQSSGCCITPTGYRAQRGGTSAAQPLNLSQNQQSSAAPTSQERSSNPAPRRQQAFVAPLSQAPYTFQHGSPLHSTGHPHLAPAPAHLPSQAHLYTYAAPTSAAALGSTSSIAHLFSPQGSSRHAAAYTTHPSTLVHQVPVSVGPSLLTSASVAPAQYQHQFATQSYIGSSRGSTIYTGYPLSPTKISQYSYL
Serine/threonine-protein kinase pim-1, sequence (P11309 whole entry, looked up): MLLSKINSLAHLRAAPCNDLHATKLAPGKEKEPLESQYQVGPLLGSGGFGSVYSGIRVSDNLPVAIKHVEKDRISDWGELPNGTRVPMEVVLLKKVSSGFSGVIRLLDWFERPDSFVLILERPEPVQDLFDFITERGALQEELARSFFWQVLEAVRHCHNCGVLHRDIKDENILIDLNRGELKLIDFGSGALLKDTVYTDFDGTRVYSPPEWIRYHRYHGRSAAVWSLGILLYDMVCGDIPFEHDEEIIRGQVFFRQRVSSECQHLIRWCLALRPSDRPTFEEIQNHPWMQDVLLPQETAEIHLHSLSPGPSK
Ribosomal protein S6 kinase alpha-2 (Homo sapiens), sequence (Q15349 whole entry): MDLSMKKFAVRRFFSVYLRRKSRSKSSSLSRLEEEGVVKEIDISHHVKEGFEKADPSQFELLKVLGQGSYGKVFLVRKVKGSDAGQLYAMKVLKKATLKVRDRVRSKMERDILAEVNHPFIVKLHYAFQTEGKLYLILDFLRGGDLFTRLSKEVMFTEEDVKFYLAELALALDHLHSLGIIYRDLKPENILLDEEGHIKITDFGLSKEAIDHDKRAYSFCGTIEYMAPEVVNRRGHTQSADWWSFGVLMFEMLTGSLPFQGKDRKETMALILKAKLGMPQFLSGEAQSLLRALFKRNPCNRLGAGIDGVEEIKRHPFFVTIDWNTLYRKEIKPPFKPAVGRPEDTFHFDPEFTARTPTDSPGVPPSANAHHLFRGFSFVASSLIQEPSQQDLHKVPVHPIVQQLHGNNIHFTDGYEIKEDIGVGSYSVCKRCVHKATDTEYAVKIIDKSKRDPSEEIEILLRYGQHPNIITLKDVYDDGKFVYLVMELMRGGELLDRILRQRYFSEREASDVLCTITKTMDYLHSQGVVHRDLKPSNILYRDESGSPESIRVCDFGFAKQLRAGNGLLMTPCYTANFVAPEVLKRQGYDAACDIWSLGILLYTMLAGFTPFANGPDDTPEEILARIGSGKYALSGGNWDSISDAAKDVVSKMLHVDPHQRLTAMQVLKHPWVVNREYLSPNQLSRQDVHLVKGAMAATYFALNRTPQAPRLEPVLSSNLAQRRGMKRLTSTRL
Serine/threonine-protein kinase N1, sequence (Q16512 2-942 limits assumed): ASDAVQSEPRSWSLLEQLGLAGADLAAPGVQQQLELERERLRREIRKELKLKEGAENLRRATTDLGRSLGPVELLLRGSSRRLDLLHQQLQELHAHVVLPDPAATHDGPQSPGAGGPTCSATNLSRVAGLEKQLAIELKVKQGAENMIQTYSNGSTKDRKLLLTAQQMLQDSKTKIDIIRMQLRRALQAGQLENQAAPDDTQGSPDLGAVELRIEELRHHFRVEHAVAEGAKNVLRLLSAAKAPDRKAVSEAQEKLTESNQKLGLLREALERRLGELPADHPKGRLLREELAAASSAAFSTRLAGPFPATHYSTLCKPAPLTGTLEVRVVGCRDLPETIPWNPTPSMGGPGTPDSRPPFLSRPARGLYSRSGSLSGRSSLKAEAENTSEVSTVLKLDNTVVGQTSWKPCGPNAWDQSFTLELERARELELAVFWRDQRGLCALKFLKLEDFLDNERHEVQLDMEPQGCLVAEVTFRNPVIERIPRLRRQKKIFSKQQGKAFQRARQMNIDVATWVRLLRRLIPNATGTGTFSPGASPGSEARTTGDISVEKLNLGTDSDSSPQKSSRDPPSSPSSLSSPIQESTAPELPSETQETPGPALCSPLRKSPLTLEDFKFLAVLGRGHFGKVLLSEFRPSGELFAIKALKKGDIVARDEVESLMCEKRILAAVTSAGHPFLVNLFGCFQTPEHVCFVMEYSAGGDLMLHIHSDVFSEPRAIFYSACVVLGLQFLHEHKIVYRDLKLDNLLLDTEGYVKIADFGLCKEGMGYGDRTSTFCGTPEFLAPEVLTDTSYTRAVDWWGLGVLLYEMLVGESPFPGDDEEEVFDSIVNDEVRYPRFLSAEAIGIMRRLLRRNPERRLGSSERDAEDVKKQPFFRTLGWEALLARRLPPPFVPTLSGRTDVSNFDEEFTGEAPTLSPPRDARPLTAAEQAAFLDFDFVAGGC
Cyclin-dependent kinase 9, sequence (P50750 whole entry): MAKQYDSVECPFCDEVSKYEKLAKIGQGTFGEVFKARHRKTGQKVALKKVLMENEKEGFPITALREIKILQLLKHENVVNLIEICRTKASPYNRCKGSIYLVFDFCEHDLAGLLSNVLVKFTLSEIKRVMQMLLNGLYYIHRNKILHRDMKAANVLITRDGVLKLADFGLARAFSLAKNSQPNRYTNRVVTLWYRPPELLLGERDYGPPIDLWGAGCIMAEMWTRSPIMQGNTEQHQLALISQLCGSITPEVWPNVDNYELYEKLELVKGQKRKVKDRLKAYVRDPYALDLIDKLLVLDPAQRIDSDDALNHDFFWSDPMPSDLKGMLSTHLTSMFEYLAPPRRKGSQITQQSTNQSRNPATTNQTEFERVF
RAC-beta serine/threonine-protein kinase (Homo sapiens), sequence (P31751 whole entry): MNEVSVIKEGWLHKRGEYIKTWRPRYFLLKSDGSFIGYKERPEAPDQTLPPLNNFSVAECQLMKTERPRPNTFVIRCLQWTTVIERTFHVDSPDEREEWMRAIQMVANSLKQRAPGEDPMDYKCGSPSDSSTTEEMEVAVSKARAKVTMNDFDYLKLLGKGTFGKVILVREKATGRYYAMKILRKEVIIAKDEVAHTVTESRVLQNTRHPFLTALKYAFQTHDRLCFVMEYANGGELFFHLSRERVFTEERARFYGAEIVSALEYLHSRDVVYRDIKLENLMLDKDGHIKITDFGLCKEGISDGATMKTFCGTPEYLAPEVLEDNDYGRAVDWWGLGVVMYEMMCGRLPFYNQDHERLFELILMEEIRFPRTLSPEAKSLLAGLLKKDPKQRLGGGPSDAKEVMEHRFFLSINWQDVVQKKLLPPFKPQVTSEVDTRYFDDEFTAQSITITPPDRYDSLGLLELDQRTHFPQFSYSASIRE
Tyrosine-protein kinase Fes/Fps (Homo sapiens), sequence (P07332 whole entry): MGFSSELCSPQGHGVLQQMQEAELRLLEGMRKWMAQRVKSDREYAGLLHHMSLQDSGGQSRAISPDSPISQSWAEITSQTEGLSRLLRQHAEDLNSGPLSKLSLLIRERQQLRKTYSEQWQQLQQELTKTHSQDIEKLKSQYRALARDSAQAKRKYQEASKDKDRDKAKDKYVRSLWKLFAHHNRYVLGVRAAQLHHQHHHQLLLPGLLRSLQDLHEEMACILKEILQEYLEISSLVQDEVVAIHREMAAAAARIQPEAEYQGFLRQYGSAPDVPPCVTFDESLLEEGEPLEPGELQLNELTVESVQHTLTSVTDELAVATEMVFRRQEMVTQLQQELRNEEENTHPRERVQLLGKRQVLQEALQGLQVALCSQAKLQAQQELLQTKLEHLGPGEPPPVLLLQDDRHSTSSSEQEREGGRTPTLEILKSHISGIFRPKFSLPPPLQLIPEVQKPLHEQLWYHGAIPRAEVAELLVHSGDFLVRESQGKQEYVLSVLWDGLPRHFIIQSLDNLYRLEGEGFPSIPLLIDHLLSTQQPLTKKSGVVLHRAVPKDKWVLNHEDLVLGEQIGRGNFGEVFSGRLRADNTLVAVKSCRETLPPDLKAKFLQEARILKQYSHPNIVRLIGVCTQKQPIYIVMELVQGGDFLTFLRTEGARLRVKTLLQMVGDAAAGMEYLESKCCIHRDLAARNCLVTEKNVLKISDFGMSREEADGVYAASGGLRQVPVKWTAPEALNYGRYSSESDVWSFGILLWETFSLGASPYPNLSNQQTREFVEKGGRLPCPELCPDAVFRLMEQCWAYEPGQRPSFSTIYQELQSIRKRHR

For the compound `Cn1cc(-n2cnc3c(NCc4nc5cc(Cl)c(Cl)cc5[nH]4)nc(N4CCOCC4)nc32)cn1`, in assay [1], the % of control was -4.06%.
`C=CC(=O)Nc1ccc(C(=O)Nc2[nH]nc3c2CN(C(=O)N[C@H](CN(C)C)c2ccccc2)C3(C)C)cc1` yielded a % of engagement in [2] of 10.9%.
Take `CNC(=O)Nc1ccc(-c2nc(N3CC4CCC(C3)O4)c3cnn(C4CCC5(CC4)OCCO5)c3n2)cc1`: the % of inhibition stood at 7% in [3], 1% in assay [6] and 2% in assay [7]. In addition, the % of control in [4] and in assay [5] was 100% each time.
Consider `Cc1cc([C@@H](C)Nc2ccccc2C(=O)O)c2nc(N3CCOCC3)cc(=O)n2c1` [AZD-6482], for which the % of control in assay [8] stood at 100%.
As to `COc1cc(N(C)c2ccnc3ccc(C(F)(F)F)cc23)cc(OC)c1OC`, the % binding in assay [9] turned out to be 86%.
As to `CN(C)CCOc1ccc(-c2nc(-c3ccncc3)c(-c3ccc4c(c3)CC/C4=N\O)[nH]2)cc1`, the % of control in assay [10] and in [11] was 100% each time.
As to `Nc1cnc(N2CCc3cc(S(=O)(=O)Nc4c(F)cc(Cl)cc4F)cc(N4CCCC4=O)c32)nc1` [TP-020n], the % of control in [12] stood at 100%.
Regarding `N#Cc1cccc(-c2c[nH]c3ncnc(N4CCOCC4)c23)c1`, the % of control in [13] was found to be 100%.
In the case of `CC[C@@H]1[C@H](F)C(=O)N[C@@H]1COc1nccc2cc(C(N)=O)c(OC)cc12` [ZIMLOVISERTIB], the % of inhibition in assay [14] amounted to 34%.
`Cc1cnc(Nc2ccc(F)cc2Cl)nc1-c1c[nH]c(C(=O)N[C@H](CO)c2cccc(Cl)c2)c1` displayed a % of inhibition in assay [15] of 7%.
For the compound `Cc1cc(F)c(C(=O)Nc2cccc(-c3nncn3C(C)C)n2)cc1-n1cnc(C2CC2)c1`, the % of control in [16] came to 100%.
In the case of `C=CC(=O)Nc1cc(-n2c(=O)ccc3cnc4ccc(-c5ccc(NS(C)(=O)=O)cc5)cc4c32)ccc1C`, the % of control was 100% in assay [17] (at 1 µM) and 56% in [17] (at 10 µM).
As for `O[C@H]1CC[C@H](Nc2ncc3nc(Nc4c(F)cc(F)cc4F)n([C@H]4CCOC4)c3n2)CC1`, the % of control in assay [18] came to 91%.
